“Also recorded” adds a separate entry of the source.
Legend:
[1] = molecular target: Menin-MLL binding (His-Menin1-615 / MLL1-172-FLAG) (Homo sapiens (Human), UniProt O00255); assay: Test 1: inhibition of the Menin-MLL binding (HTRF); conditions: for IC50: Menin-MLL binding inhibition; for Menin-MLL binding inhibition activity: statement in words on the table of Test 1
Protocol: After the incubation, the signal was detected with RUBYstar (BMG LABTECH).

RS4; 11 cells = assay: Test 2: inhibition of cell proliferation, RS4;11; assay type: cell-based; conditions: for IC50: Homo sapiens, RS4;11 cells, 7 days, PrestoBlue cell viability; for cell proliferation inhibition activity: statement in words, RS4;11 and MOLM-13 cells
Protocol: (§1) RS4; 11 cells were obtained from American Type Culture Collection (ATCC). […] MOLM-13 cells were separately obtained from DSMZ (Deutsche Sammlung von Mikroorganismen und Zellkulturen GmbH).
(§2) The cells were plated to a 96-well plate in 2000 cells/well, each test compound was added thereto to adjust the final concentration of DMSO to 0.1% of DMSO, and the cells were cultured for 7 days. After the cultivation, the cell viability was calculated with PrestoBlue™ Cell Viability Reagent (Invitrogen, A13261).

MOLM-13 cells = assay: Test 2: inhibition of cell proliferation, MOLM-13; assay type: cell-based; conditions: Homo sapiens, 7 days, PrestoBlue cell viability
Protocol: as §1, §2

MEIS1 = assay: Test 3: inhibition of mRNA transcription, MEIS1 in MV4;11 cells; assay type: cell-based; conditions: for mRNA at 1 μM (% control) MEIS1: MV4;11 cells, 20 to 24 hours, relative to GAPDH; for mRNA transcription inhibition activity: statement in words, MEIS1 and HOXA9, MV4;11 cells
Source text: (§3) MV4; 11 cells were obtained from American Type Culture Collection (ATCC). […] The expression level of each obtained gene (MEIS1 and HOXA9) was fitted with the expression level of mRNA of GAPDH.

HOXA9 = assay: Test 3: inhibition of mRNA transcription, HOXA9 in MV4;11 cells; assay type: cell-based; conditions: 20 to 24 hours, relative to GAPDH
Source text: as §3

[2] = molecular target: hERG (human Ether-a-go-go Related Gene) (Homo sapiens (Human), UniProt Q12809); assay: Test 4: hERG inhibition (QPatch HT, CHO cells stably expressing hERG); conditions: for hERG/RS4; 11: hERG IC50 divided by RS4;11 proliferation IC50
Chain of hERG (human Ether-a-go-go Related Gene) (Q12809 whole entry): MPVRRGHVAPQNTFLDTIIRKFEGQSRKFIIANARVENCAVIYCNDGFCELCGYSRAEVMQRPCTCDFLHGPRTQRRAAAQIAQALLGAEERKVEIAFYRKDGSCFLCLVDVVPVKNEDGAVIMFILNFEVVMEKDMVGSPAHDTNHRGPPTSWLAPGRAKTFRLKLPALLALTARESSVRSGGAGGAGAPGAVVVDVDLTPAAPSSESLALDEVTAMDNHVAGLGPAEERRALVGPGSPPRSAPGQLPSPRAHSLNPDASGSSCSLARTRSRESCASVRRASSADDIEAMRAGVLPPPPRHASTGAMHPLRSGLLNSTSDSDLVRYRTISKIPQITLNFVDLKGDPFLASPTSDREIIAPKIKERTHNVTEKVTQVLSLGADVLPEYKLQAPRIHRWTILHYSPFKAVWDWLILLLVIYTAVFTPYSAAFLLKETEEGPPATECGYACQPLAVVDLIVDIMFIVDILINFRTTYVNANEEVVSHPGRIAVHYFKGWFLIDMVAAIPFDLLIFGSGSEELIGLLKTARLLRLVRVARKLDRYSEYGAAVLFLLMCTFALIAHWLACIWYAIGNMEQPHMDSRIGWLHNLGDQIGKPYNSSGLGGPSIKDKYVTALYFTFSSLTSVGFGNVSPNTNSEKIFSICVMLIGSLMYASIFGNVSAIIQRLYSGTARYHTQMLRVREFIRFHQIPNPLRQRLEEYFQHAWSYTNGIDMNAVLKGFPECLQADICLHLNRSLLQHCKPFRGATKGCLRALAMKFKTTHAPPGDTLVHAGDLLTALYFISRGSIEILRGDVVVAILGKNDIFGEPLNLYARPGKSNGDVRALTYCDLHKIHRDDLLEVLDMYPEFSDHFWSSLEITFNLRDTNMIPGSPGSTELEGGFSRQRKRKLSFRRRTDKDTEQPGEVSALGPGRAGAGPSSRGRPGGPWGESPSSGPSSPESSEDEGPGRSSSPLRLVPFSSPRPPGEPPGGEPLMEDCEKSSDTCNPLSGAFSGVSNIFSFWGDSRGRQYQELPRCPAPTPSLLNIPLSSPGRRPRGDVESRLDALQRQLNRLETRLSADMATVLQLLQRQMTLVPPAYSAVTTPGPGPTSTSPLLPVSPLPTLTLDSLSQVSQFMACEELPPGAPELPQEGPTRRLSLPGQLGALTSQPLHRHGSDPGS

Chain of Menin-MLL binding (His-Menin1-615 / MLL1-172-FLAG) (O00255 other isoform, or with tags, fused parts or gaps): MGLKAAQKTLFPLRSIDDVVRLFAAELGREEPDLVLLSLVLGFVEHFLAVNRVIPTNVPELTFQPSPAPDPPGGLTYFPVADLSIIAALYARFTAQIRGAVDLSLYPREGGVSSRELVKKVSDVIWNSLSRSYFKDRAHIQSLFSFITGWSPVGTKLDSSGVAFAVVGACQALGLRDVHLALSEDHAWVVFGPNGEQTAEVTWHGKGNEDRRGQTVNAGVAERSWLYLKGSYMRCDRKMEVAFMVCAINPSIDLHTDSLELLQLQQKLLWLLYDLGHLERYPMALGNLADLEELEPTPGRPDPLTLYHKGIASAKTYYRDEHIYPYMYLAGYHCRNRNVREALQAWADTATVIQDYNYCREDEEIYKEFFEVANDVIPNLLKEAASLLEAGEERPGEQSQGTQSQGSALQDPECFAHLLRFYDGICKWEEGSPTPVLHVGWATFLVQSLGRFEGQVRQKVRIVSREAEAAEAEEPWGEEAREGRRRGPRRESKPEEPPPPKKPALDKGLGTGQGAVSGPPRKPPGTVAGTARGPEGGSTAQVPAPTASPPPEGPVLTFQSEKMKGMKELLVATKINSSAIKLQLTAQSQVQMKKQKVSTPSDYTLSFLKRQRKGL

Row | Compound | IC50 [1] [nM] | Menin-MLL binding inhibition activity [1] | IC50 (RS4; 11 cells) [nM] | cell proliferation inhibition activity (RS4; 11 cells) | IC50 (MOLM-13 cells) [nM] | mRNA at 1 μM (% control) MEIS1 (MEIS1) [% control] | mRNA transcription inhibition activity (MEIS1) | mRNA at 1 μM (% control) HOXA9 (HOXA9) [% control] | IC50 [2] [nM] | gap between RS4; 11 proliferation IC50 and hERG current IC50 [2] | hERG/RS4; 11 [2]
1 | CC(C)N(C(=O)c1cc(F)ccc1Oc1cncnc1N1CC2(CCN(C(=O)[C@H]3N[C@H]4CC[C@@H]3C[C@H]4CC3CC3)CC2)C1)C(C)C [Example 4, 2-[(4-{7-[(1S,3S,4R,6R)-6-(cyclopropylmethyl)-2-azabicyclo[2.2.2]octane-3-carbonyl]-2,7-diazaspiro[3.5]nonan-2-yl}pyrimidin-5-yl)oxy]-5-fluoro-N,N-di(propan-2-yl)benzamide] | 7.1 | potent | 40 | potent | 70 | 18.0 | showed the mRNA transcription inhibition activity | 43.7 | 5800 | more than 100 fold | 145
2 | CC(C)N(C(=O)c1cc(F)ccc1Oc1cncnc1N1CC2(CN(C(=O)[C@H]3N[C@H]4CC[C@@H]3C[C@H]4CC3CC3)C2)C1)C(C)C [Example 5, 2-[(4-{6-[(1S,3S,4R,6R)-6-(cyclopropylmethyl)-2-azabicyclo[2.2.2]octane-3-carbonyl]-2,6-diazaspiro[3.3]heptan-2-yl}pyrimidin-5-yl)oxy]-5-fluoro-N,N-di(propan-2-yl)benzamide] | 4.1 | potent | 20 | potent; also recorded: excellent | 30 | 15.5 | showed the mRNA transcription inhibition activity | 42.6 | 7900 | more than 100 fold | 395
3 | CC(C)N(C(=O)c1cc(F)ccc1Oc1cncnc1N1CC2(CN(C(=O)[C@H]3N[C@H]4CC[C@@H]3[C@@H](F)C4)C2)C1)C(C)C [Example 10, 5-fluoro-2-[(4-{6-[(1S,3S,4S,5S)-5-fluoro-2-azabicyclo[2.2.2]octane-3-carbonyl]-2,6-diazaspiro[3.3]heptan-2-yl}pyrimidin-5-yl)oxy]-N,N-di(propan-2-yl)benzamide] | < 3 | particularly potent | 20 | potent | 30 | 13.3 | showed the mRNA transcription inhibition activity | 37.4 | > 10000 | more than 100 fold | >500

— US10815241B2, “Optically active azabicyclo ring derivative” (priority 2018, dated 2020)
